Experimental data published in patent US12721816B2, “Polymer-encapsulated drug particles” (Tonic Medical, Inc., priority 2020, dated 2026).
One block for each molecule: values may come before it.

How the values were obtained:
[1] = urethral stricture patients; 1 hour, 3 hours, 5 hours, 10 hours, 24 hours, and 5 days
Description: Clinical subjects were evaluated at 14, 30, 90, 180, 365 days, and 2 years after the index procedure. Evaluations included analysis of stricture free rate, uroflowmetry including Qmax, and PVR.

[2] = BSA added; cited from earlier work
[3] = stability under ethylene oxide sterilization, heating, and aging with paclitaxel; conditions: formulated with paclitaxel
albumin = albumin (Homo sapiens, UniProt P02768); conditions: cited from earlier work
Chain of albumin (P02768 25-609): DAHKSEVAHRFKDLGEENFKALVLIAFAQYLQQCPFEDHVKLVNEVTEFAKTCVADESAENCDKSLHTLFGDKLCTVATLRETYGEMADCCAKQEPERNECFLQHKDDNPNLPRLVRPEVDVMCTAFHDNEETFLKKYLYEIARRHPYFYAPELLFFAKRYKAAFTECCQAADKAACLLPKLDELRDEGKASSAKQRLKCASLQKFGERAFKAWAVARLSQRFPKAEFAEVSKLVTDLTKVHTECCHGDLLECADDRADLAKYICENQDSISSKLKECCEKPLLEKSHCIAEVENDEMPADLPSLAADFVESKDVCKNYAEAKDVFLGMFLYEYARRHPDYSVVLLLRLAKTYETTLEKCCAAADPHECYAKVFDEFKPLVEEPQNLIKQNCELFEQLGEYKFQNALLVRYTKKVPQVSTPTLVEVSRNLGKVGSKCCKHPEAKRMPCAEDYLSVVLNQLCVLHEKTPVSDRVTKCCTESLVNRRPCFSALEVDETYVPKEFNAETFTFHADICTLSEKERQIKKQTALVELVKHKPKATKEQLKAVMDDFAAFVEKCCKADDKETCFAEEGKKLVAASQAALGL

Human plasma paclitaxel concentration on average [1]: below the level of quantification
Structure (SMILES): CC(=O)O[C@H]1C(=O)[C@@]2(C)[C@H]([C@H](OC(=O)c3ccccc3)[C@]3(O)C[C@H](OC(=O)[C@H](O)[C@@H](NC(=O)c4ccccc4)c4ccccc4)C(C)=C1C3(C)C)[C@]1(OC(C)=O)CO[C@@H]1C[C@@H]2O [paclitaxel]
solubility increase in PBS with the addition of BSA [2]: over 20 fold

Structure (SMILES): O=C(O)c1ccccc1 [benzoic acid]
stability under ethylene oxide sterilization, heating, and aging process [3]: not stable

Structure (SMILES): CO[C@H]1C[C@@H]2CC[C@@H](C)[C@@](O)(O2)C(=O)C(=O)N2CCCC[C@H]2C(=O)O[C@H]([C@H](C)C[C@@H]2CC[C@@H](O)[C@H](OC)C2)CC(=O)[C@H](C)/C=C(\C)[C@@H](O)[C@@H](OC)C(=O)[C@H](C)C[C@H](C)/C=C/C=C/C=C/1C [sirolimus]
share of protein binding to albumin (albumin; bound primarily to albumin): 97% | protein bound (albumin): 92%
